# Measured values from PubChem BioAssay (NCI).
# Several values for one entry are separate records, joined by “and”; a condition that tells them apart may be missing. Equal values may be shown once.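 Method: 48-hour compound exposure of cells in 96-well plates, five concentrations, linear interpolation of endpoints. GI50 is the concentration that inhibits growth by half. At the TGI there is no net growth.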 Activity calls are given as the source filed them. Rule as the data show it: active = GI50 below about 0.43 µM; inactive = the rest.
# How the values were obtained:
# Experiment in all cases: DTP human tumour cell line panel, 48 h
# [1] = test system: M14 melanoma
# [2] = test system: SNB-78 CNS
# [3] = test system: UACC-62 melanoma
# [4] = test system: MOLT-4 leukemia
# [5] = test system: HT29 colon
# [6] = test system: SK-MEL-2 melanoma
# [7] = test system: SN12C renal
# [8] = test system: OVCAR-8 ovarian
# [9] = test system: OVCAR-5 ovarian
# [10] = test system: RXF 393 renal
# [11] = test system: SF-539 CNS
# [12] = test system: LXFL 529 NSCLC
# [13] = test system: SNB-19 CNS
# [14] = test system: NCI-H23 lung
# [15] = test system: HOP-92 NSCLC
# [16] = test system: SK-MEL-28 melanoma
# [17] = test system: EKVX NSCLC
# [18] = test system: ACHN renal
# [19] = test system: OVCAR-3 ovarian
# [20] = test system: COLO 205 colon
# [21] = test system: IGROV1 ovarian
# [22] = test system: KM20L2 colon
# [23] = test system: U251 CNS
# [24] = test system: A549 NSCLC
# [25] = test system: SK-MEL-5 melanoma
# [26] = test system: HCT-15 colon
# [27] = test system: TK-10 renal
# [28] = test system: HCT-116 colon
# [29] = test system: HCC-2998 colon
# [30] = test system: SR leukemia
# [31] = test system: DMS 273 small cell lung
# [32] = test system: UACC-257 melanoma
# [33] = test system: RPMI-8226 leukemia
# [34] = test system: HOP-18 NSCLC
# [35] = test system: SNB-75 CNS
# [36] = test system: KM12 colon
# [37] = test system: K-562 leukemia
# [38] = test system: NCI-H460 lung
# [39] = test system: HOP-62 NSCLC
# [40] = test system: DMS 114 small cell lung
# [41] = test system: LOX IMVI melanoma
# [42] = test system: OVCAR-4 ovarian
# [43] = test system: SW-620 colon
# [44] = test system: UO-31 renal
# [45] = test system: SF-268 CNS
# [46] = test system: HL-60(TB) leukemia
# [47] = test system: M19-MEL melanoma
# [48] = test system: CCRF-CEM leukemia
# [49] = test system: SK-OV-3 ovarian
# [50] = test system: DLD-1 colon
# [51] = test system: 786-0 renal
# [52] = test system: MALME-3M melanoma
# [53] = test system: NCI-H226 lung
# [54] = test system: NCI-H522 lung
# [55] = test system: A498 renal
# [56] = test system: PC-3 prostate
# [57] = test system: MDA-N
# [58] = test system: T-47D breast
# [59] = test system: MCF7 breast
# [60] = test system: MDA-MB-435
# [61] = test system: DU-145 prostate
# [62] = test system: CAKI-1 renal
# [63] = test system: SF-295 CNS
# [64] = test system: BT-549 breast
# [65] = test system: MDA-MB-231 breast
# [66] = test system: HS 578T breast
smiles,measurement,setting,value
CCNC(=S)NNC(=O)c1nsc2ccccc12,TGI,[1],> 100 µM
same,TGI,[2],> 100 µM
same,TGI,[3],> 100 µM
same,TGI,[4],> 100 µM
same,TGI,[5],> 100 µM
same,TGI,[6],> 100 µM
same,TGI,[7],> 100 µM
same,TGI,[8],> 100 µM
same,TGI,[9],> 100 µM
same,TGI,[10],> 100 µM
same,TGI,[11],> 100 µM
same,TGI,[12],> 100 µM
same,TGI,[13],> 100 µM
same,TGI,[14],> 100 µM
same,TGI,[15],> 100 µM
same,TGI,[16],> 100 µM
same,TGI,[17],> 100 µM
same,TGI,[18],> 100 µM
same,TGI,[19],> 100 µM
same,TGI,[20],> 100 µM
same,TGI,[21],> 100 µM
same,TGI,[22],> 100 µM
same,TGI,[23],> 100 µM
same,TGI,[24],> 100 µM
same,TGI,[25],> 100 µM
same,TGI,[26],> 100 µM
same,TGI,[27],> 100 µM
same,TGI,[28],> 100 µM
same,TGI,[29],> 100 µM
same,TGI,[30],> 100 µM
same,TGI,[31],> 100 µM
same,TGI,[32],> 100 µM
same,TGI,[33],> 100 µM
same,TGI,[34],> 100 µM
same,TGI,[35],> 100 µM
same,TGI,[36],> 100 µM
same,TGI,[37],> 100 µM
same,TGI,[38],> 100 µM
same,TGI,[39],> 100 µM
same,TGI,[40],> 100 µM
same,TGI,[41],> 100 µM
same,TGI,[42],> 100 µM
same,TGI,[43],> 100 µM
same,TGI,[44],> 100 µM
same,TGI,[45],> 100 µM
same,TGI,[46],> 100 µM
same,TGI,[47],> 100 µM
same,TGI,[48],> 100 µM
CC1CC2=C(C(=O)O1)C(c1ccccc1)Nc1ccccc1N2 (centres undefined),TGI,[49],> 100 µM
same,TGI,[1],> 100 µM
same,TGI,[2],> 100 µM
same,TGI,[3],> 100 µM
same,TGI,[4],> 100 µM
same,TGI,[5],> 100 µM
same,TGI,[6],> 100 µM
same,TGI,[7],> 100 µM
same,TGI,[8],> 100 µM
same,TGI,[9],> 100 µM
same,TGI,[10],> 100 µM
same,TGI,[50],> 100 µM
same,TGI,[11],> 100 µM
same,TGI,[12],> 100 µM
same,TGI,[13],> 100 µM
same,TGI,[14],> 100 µM
same,TGI,[16],> 100 µM
same,TGI,[17],> 100 µM
same,TGI,[18],> 100 µM
same,TGI,[19],> 100 µM
same,TGI,[20],> 100 µM
same,TGI,[21],> 100 µM
same,TGI,[22],> 100 µM
same,TGI,[51],> 100 µM
same,TGI,[23],> 100 µM
same,TGI,[24],> 100 µM
same,TGI,[25],> 100 µM
same,TGI,[26],> 100 µM
same,TGI,[27],> 100 µM
same,TGI,[52],> 100 µM
same,TGI,[28],> 100 µM
same,TGI,[29],> 100 µM
same,TGI,[30],> 100 µM
same,TGI,[31],> 100 µM
same,TGI,[53],> 100 µM
same,TGI,[32],> 100 µM
same,TGI,[34],> 100 µM
same,TGI,[35],> 100 µM
same,TGI,[36],> 100 µM
same,TGI,[37],> 100 µM
same,TGI,[38],> 100 µM
same,TGI,[39],> 100 µM
same,TGI,[40],> 100 µM
same,TGI,[54],> 100 µM
same,TGI,[41],> 100 µM
same,TGI,[43],> 100 µM
same,TGI,[44],> 100 µM
same,TGI,[45],> 100 µM
same,TGI,[55],> 100 µM
same,TGI,[46],> 100 µM
same,TGI,[47],> 100 µM
same,TGI,[48],> 100 µM
COc1cccc2c1C(=O)c1c(O)c3c(c(O)c1C2=O)C[C@@](O)(C(=O)CO)C[C@@H]3OC1CC(N)C(O)C(C)O1 (some centres undefined),outcome,[49],inactive
same,GI50,[1],0.432 µM
same,outcome,[1],inactive
same,TGI,[2],8.73 µM
same,GI50,[3],0.149 µM
same,outcome,[3],inactive
same,GI50,[4],< 0.0221 µM
same,outcome,[4],inactive
same,outcome,[5],inactive
same,outcome,[56],inactive
same,outcome,[6],inactive
same,outcome,[7],inactive
same,outcome,[8],inactive
same,TGI,[9],5.37 µM [middle of 4 runs]
same,outcome,[9],inactive
same,GI50,[10],0.402 µM
same,TGI,[10],1.04 µM [middle of 4 runs]
same,outcome,[10],inactive
same,GI50,[11],0.191 µM
same,outcome,[11],inactive
same,TGI,[57],1.11 µM and 1.88 µM and 1.41 µM
same,outcome,[57],inactive
same,outcome,[13],inactive
same,outcome,[58],inactive
same,outcome,[59],inactive
same,outcome,[14],inactive
same,GI50,[15],0.306 µM
same,outcome,[15],inactive
same,GI50,[60],0.607 µM
same,TGI,[60],1.87 µM [middle of 4 runs]
same,outcome,[60],inactive
same,GI50,[16],0.593 µM
same,TGI,[16],1.7 µM [middle of 4 runs]
same,outcome,[16],inactive
same,outcome,[17],inactive
same,GI50,[18],0.105 µM and 0.081 µM and 0.176 µM
same,outcome,[18],inactive
same,outcome,[19],inactive
same,GI50,[20],0.498 µM
same,outcome,[20],inactive
same,GI50,[21],0.272 µM
same,outcome,[21],inactive
same,TGI,[22],15.9 µM
same,outcome,[51],inactive
same,outcome,[23],inactive
same,GI50,[61],169 nM [middle of 4 runs]
same,outcome,[61],inactive
same,GI50,[24],0.109 µM and 0.0609 µM and 0.106 µM
same,outcome,[24],inactive
same,outcome,[62],inactive
same,TGI,[25],340 nM [middle of 5 runs]
same,outcome,[25],inactive
same,GI50,[26],3.88 µM
same,outcome,[26],inactive
same,outcome,[27],inactive
same,GI50,[52],0.136 µM
same,TGI,[52],628 nM [middle of 5 runs]
same,outcome,[52],inactive
same,outcome,[28],inactive
same,outcome,[29],inactive
same,outcome,[30],inactive
same,TGI,[31],2.45 µM
same,outcome,[53],inactive
same,outcome,[32],inactive
same,outcome,[33],inactive
same,TGI,[34],13.6 µM
same,GI50,[63],0.21 µM
same,outcome,[63],inactive
same,GI50,[35],0.245 µM
same,outcome,[35],inactive
same,outcome,[36],inactive
same,GI50,[37],0.218 µM
same,outcome,[37],inactive
same,outcome,[64],inactive
same,outcome,[38],inactive
same,GI50,[39],0.145 µM
same,outcome,[39],inactive
same,TGI,[40],0.591 µM
same,GI50,[54],0.193 µM
same,outcome,[54],inactive
same,GI50,[41],0.0392 µM and 0.0917 µM
same,TGI,[42],5.19 µM [middle of 4 runs]
same,outcome,[42],inactive
same,outcome,[43],inactive
same,GI50,[44],1.85 µM
same,outcome,[44],inactive
same,GI50,[65],0.949 µM
same,TGI,[65],4.83 µM [middle of 4 runs]
same,outcome,[65],inactive
same,GI50,[45],0.219 µM
same,outcome,[45],inactive
same,GI50,[55],0.0814 µM and 0.195 µM
same,TGI,[55],0.55 µM and 0.696 µM
same,outcome,[55],inactive
same,outcome,[46],inactive
same,GI50,[66],< 0.01 µM
same,outcome,[66],inactive
same,TGI,[47],0.974 µM
same,outcome,[48],inactive
